Reference: patent US20130053430A1, “MODULATION OF CETP EXPRESSION” (Isis Pharmaceuticals, Inc., priority 2010, published 2013)
Strand notation (5' to 3'): a small letter for the sugar, then the base; units joined by * are phosphorothioate-linked, units joined directly phosphodiester-linked; [ ] holds rarer units or linkages, { } end groups; capitals alone tell only the bases. e = 2'-O-(2-methoxyethyl) (MOE); [5mC] = 5-methylcytosine; d = 2'-deoxy (DNA)

Legend:
human CETP mRNA [1] = assay: Antisense inhibition of human CETP mRNA in SW872 liposarcoma cells (Example 1); type: cell-based; conditions: 150 nM antisense oligonucleotide, lipofectin, ~24 hours, relative to untreated control cells
Method: Antisense oligonucleotides targeted to a CETP nucleic acid were tested for their effect on CETP mRNA transcript in vitro. Cultured SW872 liposarcoma cells at a density of 50,000 cells per well in a 24-well plate were transfected using lipofectin reagent with 150 nM antisense oligonucleotide. After approximately 24 hours, RNA was isolated from the cells and CETP mRNA levels were measured by quantitative real-time PCR. A human primer probe set (forward sequence […], designated herein as SEQ ID NO: 38; reverse sequence GGCTCACGCCTTTGCTGTT, designated herein as SEQ ID NO: 39; probe sequence […], designated herein as SEQ ID NO: 40) was used to quantitate CETP mRNA. CETP mRNA transcript levels were adjusted according to total RNA content, as measured by the house-keeping gene, GAPDH mRNA levels. GAPDH was measured using a primer probe set with the sequence as set forth in SEQ ID NOs: 10, 11, 13. Results are presented as percent inhibition of CETP, relative to untreated control cells.
The antisense oligonucleotides in Table 3 are 5-10-5 gapmers, where the gap segment comprises ten 2′-deoxynucleosides and each wing segment comprises five 2′-MOE nucleosides. Each nucleotide in the 5′ wing segment and each nucleotide in the 3′ wing segment has a 2′-MOE modification. The internucleoside linkages throughout each gapmer are phosphorothioate (P═S) linkages. All cytosine residues throughout each gapmer are 5-methylcytosines. ‘Target start site’ indicates the 5′-most nucleotide to which the antisense oligonucleotide is targeted. ‘Target stop site’ indicates the 3′-most nucleotide to which the antisense oligonucleotide is targeted. All the antisense oligonucleotides listed in Table 3 target human CETP mRNA, designated herein as SEQ ID NO: 1 (GENBANK Accession No. M30185.1).

human CETP mRNA [2] = assay: Antisense inhibition of human CETP mRNA in primary hepatocytes from huCETP transgenic mice (Example 4); type: cell-based, mouse; conditions: cytofectin, ~24 hours
Method: Transgenic mice expressing human CETP, controlled by its natural flanking region, increase expression of this gene in response to hypercholesterolemia (Jiang, X. C. et al., J. Clin. Invest. 1992. 90: 1290-1295). These mice were utilized for the following studies. Antisense oligonucleotides targeted to a CETP nucleic acid and described in Example 1 were tested for their effect on CETP mRNA transcript in vitro. Cultured primary hepatocytes from huCETP transgenic mice, at a density of 17,500 cells per well in a 96-well plate, were transfected using cytofectin reagent with 100 nM or 200 nM antisense oligonucleotide. After approximately 24 hours, RNA was isolated from the cells and CETP mRNA levels were measured by quantitative real-time PCR. CETP mRNA transcript levels were adjusted according to total RNA content, as measured by the house-keeping gene, GAPDH mRNA levels. Results are presented in Table 6 as percent inhibition of CETP, relative to untreated control cells.

Substance	% inhibition (human CETP mRNA [1])	Percent inhibition of human CETP mRNA (human CETP mRNA [2]; 100 nM)	Percent inhibition of human CETP mRNA (human CETP mRNA [2]; 200 nM)
ISIS 349450: 5-10-5 MOE gapmer GCAGTGGTGTGTAAGTGGCC (eG*e[5mC]*eA*eG*eT*dG*dG*dT*dG*dT*dG*dT*dA*dA*dG*eT*eG*eG*e[5mC]*e[5mC])	21%	89%	59%
ISIS 349488: 5-10-5 MOE gapmer GCACTGCCTTGAACTCGTCT (eG*e[5mC]*eA*e[5mC]*eT*dG*d[5mC]*d[5mC]*dT*dT*dG*dA*dA*d[5mC]*dT*e[5mC]*eG*eT*e[5mC]*eT)	47%	77%	87%
ISIS 349487: 5-10-5 MOE gapmer CCCATCAGGCTGAGCATGAG (e[5mC]*e[5mC]*e[5mC]*eA*eT*d[5mC]*dA*dG*dG*d[5mC]*dT*dG*dA*dG*d[5mC]*eA*eT*eG*eA*eG)	73%	84%	68%
ISIS 349464: 5-10-5 MOE gapmer CTTCCACCAGCTCCACCTGG (e[5mC]*eT*eT*e[5mC]*e[5mC]*dA*d[5mC]*d[5mC]*dA*dG*d[5mC]*dT*d[5mC]*d[5mC]*dA*e[5mC]*e[5mC]*eT*eG*eG)	50%	8%	56%
ISIS 349472: 5-10-5 MOE gapmer GCACTCTACCAGAGTCACAG (eG*e[5mC]*eA*e[5mC]*eT*d[5mC]*dT*dA*d[5mC]*d[5mC]*dA*dG*dA*dG*dT*e[5mC]*eA*e[5mC]*eA*eG)	39%	25%	45%
ISIS 349478: 5-10-5 MOE gapmer ATGATGTTAGAGATGACGTT (eA*eT*eG*eA*eT*dG*dT*dT*dA*dG*dA*dG*dA*dT*dG*eA*e[5mC]*eG*eT*eT)	48%	6%	33%
ISIS 349504: 5-10-5 MOE gapmer TGACCTCAGGGATGCCCACA (eT*eG*eA*e[5mC]*e[5mC]*dT*d[5mC]*dA*dG*dG*dG*dA*dT*dG*d[5mC]*e[5mC]*e[5mC]*eA*e[5mC]*eA)	45%	78%	92%
ISIS 349479: 5-10-5 MOE gapmer CTGGCAGCCCTTGTCTGGAC (e[5mC]*eT*eG*eG*e[5mC]*dA*dG*d[5mC]*d[5mC]*d[5mC]*dT*dT*dG*dT*d[5mC]*eT*eG*eG*eA*e[5mC])	67%	80%	66%
ISIS 349480: 5-10-5 MOE gapmer TGTCTCCATCTGAAAGGATG (eT*eG*eT*e[5mC]*eT*d[5mC]*d[5mC]*dA*dT*d[5mC]*dT*dG*dA*dA*dA*eG*eG*eA*eT*eG)	74%	46%	40%
ISIS 349454: 5-10-5 MOE gapmer GTGCCTTTGGAGCAGGCATG (eG*eT*eG*e[5mC]*e[5mC]*dT*dT*dT*dG*dG*dA*dG*d[5mC]*dA*dG*eG*e[5mC]*eA*eT*eG)	46%	69%	68%
ISIS 349503: 5-10-5 MOE gapmer GCGGTGATCATTGACTGCAG (eG*e[5mC]*eG*eG*eT*dG*dA*dT*d[5mC]*dA*dT*dT*dG*dA*d[5mC]*eT*eG*e[5mC]*eA*eG)	81%	83%	89%
ISIS 349467: 5-10-5 MOE gapmer GTGGTGTAGCCATACTTCAG (eG*eT*eG*eG*eT*dG*dT*dA*dG*d[5mC]*d[5mC]*dA*dT*dA*d[5mC]*eT*eT*e[5mC]*eA*eG)	35%	57%	51%
ISIS 349463: 5-10-5 MOE gapmer CTGCTGGCGATGGACAAGTG (e[5mC]*eT*eG*e[5mC]*eT*dG*dG*d[5mC]*dG*dA*dT*dG*dG*dA*d[5mC]*eA*eA*eG*eT*eG)	77%	58%	62%
